The values that follow come from patent US10202391B2, “Chemical compounds” (AstraZeneca AB, priority 2015, dated 2019).

Structures are written as SMILES.

One assay has as its target T1, ERK2 (Homo sapiens, UniProt P28482).
T1 construct: made in house
Briefly: ERK2 Rapidfire Mass Spectrometry Inhibition of Catalysis Assay. It is filed as biochemical. Conditions: 1.2 nM ERK2, 16 μM Erktide, 120 μM ATP (measured Km), 15 minute pre-incubation; read-out: ERK2 Mass Spectrometry Enzyme IC50. How it is done:
(§1) All compounds or DMSO (dimethyl sulphoxide) for the ERK2 Mass Spectrometry and A375 phospho-p90RSK assays were dispensed from source plates containing compounds at 10 mM in 100% (v/v) DMSO or 100% DMSO, directly into assay plates using an Echo 555 Acoustic dispenser (Labcyte Inc™). Depending on the assay, two separate plate preparations were followed. In Workflow A, 10 mM compound stocks were diluted 1:100 using a fixed-tip 96-head Agilent VPrep liquid handler (Agilent Technologies, Santa Clara, Calif.) to give four intermediate dilutions (10 mM, 100 μM, 1 μM, 10 nM). In Workflow B, 10 mM compound stocks were diluted 1:10 using a Tecan Freedom Evo (Tecan Group Ltd., Switzerland), and then 1:100 using the Echo 555 and Labcyte LX to produce three intermediate dilutions across three Labcyte qualified source plates (1 mM, 10 μM, 100 nM). These intermediate dilution plates were then used by the Echo 555 to generate final assay-ready compound plates with a 12 point dose range (10, 3, 1, 0.25, 0.1, 0.03, 0.01, 0.0025, 0.001, 0.0003, 0.0001, 0.0000125 μM) in order to calculate compound IC50s, with a total DMSO concentration in the assay of 1%. For the ERK2 Mass Spectrometry assay Workflow B was used. For the A375 phospho-p90RSK cell assay, the intermediate 1:100 dilution plate described in Workflow A was used by the Echo to dispense compounds and DMSO directly into the cell plates with a 12 point dose range (30, 10, 3.125, 1.25, 0.3, 0.1, 0.03125, 0.0125, 0.003, 0.001, 0.0003125, 0.00003 μM) in order to calculate compound IC50's, with a total DMSO concentration in the assay of 0.3%.
ERK2 Rapidfire Mass Spectrometry Inhibition of Catalysis Assay
MEK U911-activated ERK2 protein was expressed and purified in-house. Enzyme and substrate solutions were made up in assay buffer consisting of 50 mM Tris (pH 7.5), 10 mM MgCl2, 0.1 mM EGTA (ethylene glycol tetraacetic acid), 10 mM DTT (dithiothreitol) and 0.01% (v/v) CHAPS (3-[(3-Cholamidopropyl)dimethylammonio]-1-propanesulfonate). 1.2 nM ERK2 protein was prepared in assay buffer and 10 μl was dispensed into each well of a polypropylene, 384-well plate (#781201, Greiner) containing test and reference control compounds. […] The reaction was allowed to progress for 20 minutes at room temperature before being quenched by the addition of 80 al 1% (v/v) formic acid. The assay plates were then run on the RapidFire Mass Spectrometry platform (Agilent) to measure substrate (unphosphorylated Erktide) and product (phosphorylated Erktide) levels. Data was analysed and IC50's (half maximal inhibitory concentration) were calculated using Genedata Screener® software.

Assay [1] deals with phospho-p90RSK in A375 cell line. Briefly: A375 Phospho-p90RSK Cellular Assay. It is filed as cell-based, human. To be noted: Homo sapiens, A-375; A375 cells, 2 hours incubation. How it is done:
as §1
A375 Phospho-p90RSK Cellular Assay
A375 cells were cultured in cell media composed of DMEM (Dulbecco's modified Eagle's medium), 10% (v/v) Foetal Calf Serum and 1% (v/v) L-Glutamine. After harvesting, cells were dispensed into black, 384-well Costar plates (#3712, Corning) to give 2400 cells per well in a total volume of 40 μl cell media, and were incubated overnight at 37° C., 90% relative humidity and 5% CO2 in a rotating incubator. Test compounds and reference controls were dosed directly into the cell plates using a Labcyte Echo 555 acoustic dispenser. The cell plates were then incubated for 2 hours at 37° C. before being fixed by the addition of 20 μl 12% formaldehyde in PBS/A (4% final concentration), followed by a 20 minute room temperature incubation, and then a 2× wash with 150 μl PBS/A (phosphate buffered saline containing albumin) using a BioTek ELx405 platewasher. Cells were permeabilised with 20 μl 0.1% Triton X-100 in PBS/A for 20 minutes at room temperature, and then washed 1× with 100 μl PBS/A. Primary phospho-p90RSK (Thr359) (D1E9) rabbit monoclonal antibody (#8753, Cell Signaling Technology) was diluted 1:1000 in assay buffer (0.05% (v/v) Tween, 5% (v/v) Foetal Calf Serum, in PBS/A), 20 μl added per well, and plates were incubated at 4° C. overnight. Cell plates were washed 2× with 200 μl PBS/T (phosphate buffered saline containing Tween-20), then 20 μl 1:500 dilution in assay buffer of Alexa Fluor® 647 goat anti-rabbit IgG secondary antibody (#A31573, Molecular Probes, Life Technologies), with a 1:5000 dilution of Hoechst 33342, was added per well. Following a 90 minute incubation at room temperature, plates were washed 2× with 200 μl PBS/T, and 40 μl PBS/A was added per well. Stained cell plates were covered with black lid seals, and then read on a Cellomics ArrayScan™ VTI imaging platform (Thermo Scientific), using an XF53 filter with 10× objective, with a LED light source set-up to analyse nuclear staining with Hoechst 33342 (405 nm) and secondary antibody staining of phospho-p90RSK (647 nm). Data was analysed and IC50's were calculated using Genedata Screener® software.

T1 sequence (P28482 whole entry): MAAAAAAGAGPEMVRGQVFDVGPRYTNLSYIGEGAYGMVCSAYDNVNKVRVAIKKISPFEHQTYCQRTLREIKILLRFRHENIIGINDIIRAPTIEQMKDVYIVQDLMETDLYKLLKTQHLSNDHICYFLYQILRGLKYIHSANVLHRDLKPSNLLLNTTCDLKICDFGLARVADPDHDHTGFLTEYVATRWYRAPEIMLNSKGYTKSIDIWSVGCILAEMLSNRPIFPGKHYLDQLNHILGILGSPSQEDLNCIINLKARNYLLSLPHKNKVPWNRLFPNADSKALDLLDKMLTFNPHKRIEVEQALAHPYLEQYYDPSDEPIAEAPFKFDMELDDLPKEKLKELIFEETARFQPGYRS

As for `COc1cccc(CN2C(=O)c3nc(-c4nc(Nc5ccnn5C)ncc4Cl)cn3C[C@@H]2C)c1` [Example 7, (S)-2-(5-Chloro-2-((1-methyl-1H-pyrazol-5-yl)amino)pyrimidin-4-yl)-7-(3-methoxybenzyl)-6-methyl-6,7-dihydroimidazo[1,2-a]pyrazin-8(5H)-one], the IC50 turned out to be 0.5 nM at ERK2 and 38 nM in assay [1].
With `C[C@H]1Cn2cc(-c3ccnc(Nc4ccnn4C)n3)nc2C(=O)N1Cc1ccc(F)c(F)c1` [Example 4, (S)-7-(3,4-Difluorobenzyl)-6-methyl-2-(2-((1-methyl-1H-pyrazol-5-yl)amino)pyrimidin-4-yl)-6,7-dihydroimidazo[1,2-a]pyrazin-8(5H)-one], the values for the IC50 (on ERK2; in assay [1]) were 1.8 nM and 630 nM, respectively.
`Cc1cnc(Nc2ccnn2C)nc1-c1cn2c(n1)C(=O)N(Cc1cccc(Cl)c1)[C@@H](C)C2` [Example 19, (S)-7-(3-Chlorobenzyl)-6-methyl-2-(5-methyl-2-((1-methyl-1H-pyrazol-5-yl)amino)pyrimidin-4-yl)-6,7-dihydroimidazo[1,2-a]pyrazin-8(5H)-one]: the concentration for half-maximal inhibition (IC50) on ERK2 came to 0.5 nM; in assay [1], 5.3 nM.
On to `Cc1cnc(Nc2ccnn2C)nc1-c1cn2c(n1)C(=O)N(Cc1cccc(C(F)F)n1)[C@@H](C)C2` [Example 25, (S)-7-((6-(Difluoromethyl)pyridin-2-yl)methyl)-6-methyl-2-(5-methyl-2-((1-methyl-1H-pyrazol-5-yl)amino)pyrimidin-4-yl)-6,7-dihydroimidazo[1,2-a]pyrazin-8(5H)-one], for which the IC50 on ERK2 was 0.7 nM; in assay [1] it was 130 nM.
The like results for `Cc1cnc(Nc2ccnn2C)nc1-c1cn2c(n1)C(=O)N(Cc1cccc(C(F)F)n1)CC2` [Example 15, 7-((6-(Difluoromethyl)pyridin-2-yl)methyl)-2-(5-methyl-2-((1-methyl-1H-pyrazol-5-yl)amino)pyrimidin-4-yl)-6,7-dihydroimidazo[1,2-a]pyrazin-8(5H)-one] were, in that order, 0.6 nM and 150 nM.
As for `Cc1cnc(Nc2ccnn2C)nc1-c1cn2c(n1)C(=O)N(Cc1cccc(OC(F)F)c1)[C@@H](C)C2` [Example 28, (S)-7-(3-(Difluoromethoxy)benzyl)-6-methyl-2-(5-methyl-2-((1-methyl-1H-pyrazol-5-yl)amino)pyrimidin-4-yl)-6,7-dihydroimidazo[1,2-a]pyrazin-8(5H)-one], the IC50 on ERK2 came out at 0.5 nM; in assay [1] it was 110 nM.
With `Cc1cnc(Nc2ccnn2C)nc1-c1cn2c(n1)C(=O)N(Cc1cccc(C(F)F)c1)CC2` [Example 14, 7-(3-(Difluoromethyl)benzyl)-2-(5-methyl-2-((1-methyl-1H-pyrazol-5-yl)amino)pyrimidin-4-yl)-6,7-dihydroimidazo[1,2-a]pyrazin-8(5H)-one], the results for the IC50 (at ERK2; in assay [1]) were 0.3 nM and 24 nM, respectively.
For `COC[C@H]1Cn2cc(-c3nc(Nc4ccnn4C)ncc3C)nc2C(=O)N1Cc1cccc(OC)c1` [Example 41, (R)-7-(3-Methoxybenzyl)-6-(methoxymethyl)-2-(5-methyl-2-((1-methyl-1H-pyrazol-5-yl)amino)pyrimidin-4-yl)-6,7-dihydroimidazo[1,2-a]pyrazin-8(5H)-one] the same measures were 1.5 nM and 130 nM.
In the case of `Cc1cnc(Nc2ccnn2C)nc1-c1cn2c(n1)C(=O)N(Cc1cc(F)cc(F)c1)[C@@H](C)C2` [Example 22, (S)-7-(3,5-Difluorobenzyl)-6-methyl-2-(5-methyl-2-((1-methyl-1H-pyrazol-5-L)amino)pyrimidin-4-yl)-6,7-dihydroimidazo[1,2-a]pyrazin-8(5H)-one], the figures for the IC50 (at ERK2; in assay [1]) were 0.8 nM and 19 nM, respectively.
In the case of `Cc1cnc(Nc2ccnn2C)nc1-c1cn2c(n1)C(=O)N(Cc1cc(C(F)(F)F)ncn1)[C@@H](C)C2` [Example 32, (S)-6-Methyl-2-(5-methyl-2-((1-methyl-1H-pyrazol-5-yl)amino)pyrimidin-4-yl)-7-((6-(trifluoromethyl)pyrimidin-4-yl)methyl)-6,7-dihydroimidazo[1,2-a]pyrazin-8(5H)-one], the IC50 at ERK2 came to 0.9 nM; in assay [1], 99 nM.
The like results for `Cc1cnc(Nc2ccnn2C)nc1-c1cn2c(n1)C(=O)N(Cc1ccnc(C(F)(F)F)c1)[C@@H](C)C2` [Example 30, (S)-6-Methyl-2-(5-methyl-2-((1-methyl-1H-pyrazol-5-yl)amino)pyrimidin-4-yl)-7-((2-(trifluoromethyl)pyridin-4-yl)methyl)-6,7-dihydroimidazo[1,2-a]pyrazin-8(5H)-one] were, in that order, 0.7 nM and 200 nM.
On to `COC[C@H]1Cn2cc(-c3nc(Nc4ccnn4C)ncc3C)nc2C(=O)N1Cc1cccc(C(F)(F)F)n1` [Example 39, (R)-6-(Methoxymethyl)-2-(5-methyl-2-((1-methyl-1H-pyrazol-5-yl)amino)pyrimidin-4-yl)-7-((6-(trifluoromethyl)pyridin-2-yl)methyl)-6,7-dihydroimidazo[1,2-a]pyrazin-8(5H)-one], for which the IC50 is 1.8 nM at ERK2 and 70 nM in assay [1].
Take `Cc1cnc(Nc2ccnn2C)nc1-c1cn2c(n1)C(=O)N(Cc1cccc(C(F)(F)F)n1)[C@@H](C)C2` [Example 27, (S)-6-Methyl-2-(5-methyl-2-((1-methyl-1H-pyrazol-5-yl)amino)pyrimidin-4-yl)-7-((6-(trifluoromethyl)pyridin-2-yl)methyl)-6,7-dihydroimidazo[1,2-a]pyrazin-8(5H)-one]: the IC50 turned out to be 0.8 nM at ERK2 and 77 nM in assay [1].
The like results for `COC[C@H]1Cn2cc(-c3nc(Nc4ccnn4C)ncc3C)nc2C(=O)N1Cc1cc(F)cc(F)c1` [Example 40, (R)-7-(3,5-difluorobenzyl)-6-(methoxymethyl)-2-(5-methyl-2-((1-methyl-1H-pyrazol-5-yl)amino)pyrimidin-4-yl)-6,7-dihydroimidazo[1,2-a]pyrazin-8(5H)-one] were, in that order, 1.1 nM and 32 nM.
Turning to `Cc1cnc(Nc2ccnn2C)nc1-c1cn2c(n1)C(=O)N(Cc1cccc(C(F)F)c1)[C@@H](C)C2` [Example 21, (S)-7-(3-(Difluoromethyl)benzyl)-6-methyl-2-(5-methyl-2-((1-methyl-1H-pyrazol-5-yl)amino)pyrimidin-4-yl)-6,7-dihydroimidazo[1,2-a]pyrazin-8(5H)-one], the results for the IC50 (on ERK2; in assay [1]) were 0.6 nM and 11 nM, respectively.
